System: 885512-296-R-J2-PDC complex spheroid viability
Test: Anticancer human tumor 885512-296-R-J2-PDC patient-derived breast carcinoma cell line growth inhibition
Settings: for IC50: curve of first compound; for viability, T/C: stronger effect = lower value
Procedure, shortened: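 Multicellular complex spheroids of tumor cells with human endothelial cells (HUVEC) and mesenchymal stem cells; the LSD1 inhibitor iadademstat was combined with standard-of-care or investigational agents. Top concentration at or near clinical Cmax, half-log dilutions; final DMSO ≤0.25%.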

[1] = second compound 0.1 µM, first compound 0.000949 µM
[2] = second compound 0.1 µM, first compound 0.003 µM
[3] = second compound 0.1 µM, first compound 0.00949 µM
[4] = second compound 0.1 µM, first compound 0.03 µM
[5] = second compound 0.1 µM, first compound 0.0949 µM
[6] = second compound 0.1 µM, first compound 0.3 µM
[7] = second compound 0.316 µM, first compound 0.000949 µM
[8] = second compound 0.316 µM, first compound 0.003 µM
[9] = second compound 0.316 µM, first compound 0.00949 µM
[10] = second compound 0.316 µM, first compound 0.03 µM
[11] = second compound 0.316 µM, first compound 0.0949 µM
[12] = second compound 0.316 µM, first compound 0.3 µM
[13] = second compound 1 µM, first compound 0.000949 µM
[14] = second compound 1 µM, first compound 0.003 µM
[15] = second compound 1 µM, first compound 0.00949 µM
[16] = second compound 1 µM, first compound 0.03 µM
[17] = second compound 1 µM, first compound 0.0949 µM
[18] = second compound 1 µM, first compound 0.3 µM
[19] = second compound 3.16 µM, first compound 0.000949 µM
[20] = second compound 3.16 µM, first compound 0.003 µM
[21] = second compound 3.16 µM, first compound 0.00949 µM
[22] = second compound 3.16 µM, first compound 0.03 µM
[23] = second compound 3.16 µM, first compound 0.0949 µM
[24] = second compound 3.16 µM, first compound 0.3 µM
[25] = second compound 10 µM, first compound 0.000949 µM
[26] = second compound 10 µM, first compound 0.003 µM
[27] = second compound 10 µM, first compound 0.00949 µM
[28] = second compound 10 µM, first compound 0.03 µM
[29] = second compound 10 µM, first compound 0.0949 µM
[30] = second compound 10 µM, first compound 0.3 µM
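Also: spheroids exposed to agents for 7 days before viability read.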

CC[C@@]1(O)C(=O)OCc2c1cc1n(c2=O)Cc2cc3c(CN(C)C)c(O)ccc3nc2-1 + NC1CCC(NC2CC2c2ccccc2)CC1
IC50 (second compound 0.1 µM): 0.517 nM
IC50 (second compound 0.316 µM): 0.571 nM
IC50 (second compound 1 µM): 0.48 nM
IC50 (second compound 3.16 µM): 0.497 nM
IC50 (second compound 10 µM): 0.398 nM
viability, T/C (second compound 0.1 µM, first compound 0.000316 µM): 74%
viability, T/C (second compound 0.1 µM, first compound 0.001 µM): 17.8%
viability, T/C (second compound 0.1 µM, first compound 0.00316 µM): 9.2%
viability, T/C (second compound 0.1 µM, first compound 0.01 µM): 3.46%
viability, T/C (second compound 0.1 µM, first compound 0.0316 µM): 7.41%
viability, T/C (second compound 0.1 µM, first compound 0.1 µM): 12.3%
viability, T/C (second compound 0.316 µM, first compound 0.000316 µM): 81.8%
viability, T/C (second compound 0.316 µM, first compound 0.001 µM): 19.7%
viability, T/C (second compound 0.316 µM, first compound 0.00316 µM): 7.03%
viability, T/C (second compound 0.316 µM, first compound 0.01 µM): 3.42%
viability, T/C (second compound 0.316 µM, first compound 0.0316 µM): 5.16%
viability, T/C (second compound 0.316 µM, first compound 0.1 µM): 7.04%
viability, T/C (second compound 1 µM, first compound 0.000316 µM): 66.9%
viability, T/C (second compound 1 µM, first compound 0.001 µM): 20.4%
viability, T/C (second compound 1 µM, first compound 0.00316 µM): 6.72%
viability, T/C (second compound 1 µM, first compound 0.01 µM): 5.59%
viability, T/C (second compound 1 µM, first compound 0.0316 µM): 3.12%
viability, T/C (second compound 1 µM, first compound 0.1 µM): 4.36%
viability, T/C (second compound 3.16 µM, first compound 0.000316 µM): 71.7%
viability, T/C (second compound 3.16 µM, first compound 0.001 µM): 16.6%
viability, T/C (second compound 3.16 µM, first compound 0.00316 µM): 5.15%
viability, T/C (second compound 3.16 µM, first compound 0.01 µM): 6.21%
viability, T/C (second compound 3.16 µM, first compound 0.0316 µM): 2.51%
viability, T/C (second compound 3.16 µM, first compound 0.1 µM): 2.21%
viability, T/C (second compound 10 µM, first compound 0.000316 µM): 59.4%
viability, T/C (second compound 10 µM, first compound 0.001 µM): 13.6%
viability, T/C (second compound 10 µM, first compound 0.00316 µM): 5.78%
viability, T/C (second compound 10 µM, first compound 0.01 µM): 3.89%
viability, T/C (second compound 10 µM, first compound 0.0316 µM): 2.72%
viability, T/C (second compound 10 µM, first compound 0.1 µM): 1.8%

CCc1c2c(nc3ccc(O)cc13)-c1cc3c(c(=O)n1C2)COC(=O)[C@]3(O)CC + NC1CCC(NC2CC2c2ccccc2)CC1
IC50 (second compound 0.1 µM): < 0.949 nM
IC50 (second compound 0.316 µM): < 0.949 nM
IC50 (second compound 1 µM): < 0.949 nM
IC50 (second compound 3.16 µM): < 0.949 nM
IC50 (second compound 10 µM): < 0.949 nM
viability, T/C [1]: 5.05%
viability, T/C [2]: 2.28%
viability, T/C [3]: 7.01%
viability, T/C [4]: 6.9%
viability, T/C [5]: 6.49%
viability, T/C [6]: 3.96%
viability, T/C [7]: 2.42%
viability, T/C [8]: 4.76%
viability, T/C [9]: 4.46%
viability, T/C [10]: 6.46%
viability, T/C [11]: 6.66%
viability, T/C [12]: 4.85%
viability, T/C [13]: 4.94%
viability, T/C [14]: 2.3%
viability, T/C [15]: 1.74%
viability, T/C [16]: 1.31%
viability, T/C [17]: 1.26%
viability, T/C [18]: 3.93%
viability, T/C [19]: 1.98%
viability, T/C [20]: 2.41%
viability, T/C [21]: 1.65%
viability, T/C [22]: 4.17%
viability, T/C [23]: 1.31%
viability, T/C [24]: 6.19%
viability, T/C [25]: 2.47%
viability, T/C [26]: 1.92%
viability, T/C [27]: 1.39%
viability, T/C [28]: 3.6%
viability, T/C [29]: 3.36%
viability, T/C [30]: 1.14%

COc1cc(C2c3cc4c(cc3C(OC3OC5COC(C)OC5C(O)C3O)C3COC(=O)C23)OCO4)cc(OC)c1O (stereo not given) + NC1CCC(NC2CC2c2ccccc2)CC1
IC50 (second compound 0.1 µM): 67.8 nM
IC50 (second compound 0.316 µM): 60.8 nM
IC50 (second compound 1 µM): 66.8 nM
IC50 (second compound 3.16 µM): 77.6 nM
IC50 (second compound 10 µM): 52.8 nM
viability, T/C [3]: 118%
viability, T/C [4]: 95.8%
viability, T/C [5]: 31.2%
viability, T/C [6]: 11.3%
viability, T/C (second compound 0.1 µM, first compound 0.949 µM): 10.2%
viability, T/C (second compound 0.1 µM, first compound 3 µM): 11.3%
viability, T/C [9]: 108%
viability, T/C [10]: 90.7%
viability, T/C [11]: 24.3%
viability, T/C [12]: 11.8%
viability, T/C (second compound 0.316 µM, first compound 0.949 µM): 9.27%
viability, T/C (second compound 0.316 µM, first compound 3 µM): 8.79%
viability, T/C [15]: 104%
viability, T/C [16]: 86.4%
viability, T/C [17]: 33.4%
viability, T/C [18]: 13%
viability, T/C (second compound 1 µM, first compound 0.949 µM): 6.51%
viability, T/C (second compound 1 µM, first compound 3 µM): 4.74%
viability, T/C [21]: 98.9%
viability, T/C [22]: 105%
viability, T/C [23]: 39%
viability, T/C [24]: 10.7%
viability, T/C (second compound 3.16 µM, first compound 0.949 µM): 6.97%
viability, T/C (second compound 3.16 µM, first compound 3 µM): 9.62%
viability, T/C [27]: 90.8%
viability, T/C [28]: 64.6%
viability, T/C [29]: 35%
viability, T/C [30]: 14.2%
viability, T/C (second compound 10 µM, first compound 0.949 µM): 5.81%
viability, T/C (second compound 10 µM, first compound 3 µM): 4.68%

Nc1ccn(C2OC(CO)C(O)C2(F)F)c(=O)n1 (stereo not given) + NC1CCC(NC2CC2c2ccccc2)CC1
IC50 (second compound 0.1 µM): < 0.949 nM
IC50 (second compound 0.316 µM): < 0.949 nM
IC50 (second compound 1 µM): < 0.949 nM
IC50 (second compound 3.16 µM): < 0.949 nM
IC50 (second compound 10 µM): < 0.949 nM
viability, T/C [1]: 2.54%
viability, T/C [2]: 9.95%
viability, T/C [3]: 3.52%
viability, T/C [4]: 9.59%
viability, T/C [5]: 5.54%
viability, T/C [6]: 10.4%
viability, T/C [7]: 2.51%
viability, T/C [8]: 5.66%
viability, T/C [9]: 5.62%
viability, T/C [10]: 2.98%
viability, T/C [11]: 10%
viability, T/C [12]: 7.9%
viability, T/C [13]: 10.2%
viability, T/C [14]: 2.49%
viability, T/C [15]: 2.65%
viability, T/C [16]: 2.66%
viability, T/C [17]: 5.52%
viability, T/C [18]: 10.6%
viability, T/C [19]: 2.36%
viability, T/C [20]: 6.19%
viability, T/C [21]: 2.7%
viability, T/C [22]: 3.2%
viability, T/C [23]: 2.6%
viability, T/C [24]: 5.18%
viability, T/C [25]: 4.44%
viability, T/C [26]: 4.02%
viability, T/C [27]: 3.03%
viability, T/C [28]: 2.62%
viability, T/C [29]: 4.97%
viability, T/C [30]: 2.63%

— PubChem BioAssay AID1918946 (Molecular Pharmacology Branch, DTP, NCI, 2023)
